Measurements published in PubChem BioAssay (NCI).
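Assay format: 96-well plates, 48-hour exposure. TGI is the concentration that stops growth completely.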

Columns and labels:
Assay in all cases: growth of human tumour cells (NCI), 48 h
[1] = tested on: HCT-116 colon
[2] = tested on: HCT-15 colon
[3] = tested on: EKVX NSCLC
[4] = tested on: SF-268 CNS
[5] = tested on: OVCAR-4 ovarian
[6] = tested on: UACC-62 melanoma
[7] = tested on: IGROV1 ovarian
[8] = tested on: NCI-H226 lung
[9] = tested on: COLO 205 colon
[10] = tested on: SK-MEL-28 melanoma
[11] = tested on: HCC-2998 colon
[12] = tested on: SK-MEL-2 melanoma
[13] = tested on: UO-31 renal
[14] = tested on: NCI-H23 lung
[15] = tested on: OVCAR-8 ovarian
[16] = tested on: KM12 colon
[17] = tested on: SK-MEL-5 melanoma
[18] = tested on: NCI-H460 lung
[19] = tested on: LOX IMVI melanoma
[20] = tested on: DU-145 prostate
[21] = tested on: NCI/ADR-RES ovarian
[22] = tested on: RXF 393 renal
[23] = tested on: HOP-92 NSCLC
[24] = tested on: NCI-H522 lung
[25] = tested on: TK-10 renal
[26] = tested on: SN12C renal
[27] = tested on: MDA-MB-231 breast
[28] = tested on: HT29 colon
[29] = tested on: SK-OV-3 ovarian
[30] = tested on: HL-60(TB) leukemia
[31] = tested on: OVCAR-5 ovarian
[32] = tested on: SF-295 CNS
[33] = tested on: UACC-257 melanoma
[34] = tested on: SF-539 CNS
[35] = tested on: HOP-62 NSCLC
[36] = tested on: PC-3 prostate
[37] = tested on: CAKI-1 renal
[38] = tested on: M14 melanoma
[39] = tested on: SNB-19 CNS
[40] = tested on: SNB-75 CNS
[41] = tested on: SW-620 colon
[42] = tested on: CCRF-CEM leukemia
[43] = tested on: ACHN renal
[44] = tested on: MOLT-4 leukemia
[45] = tested on: HS 578T breast
[46] = tested on: A549 NSCLC
[47] = tested on: SR leukemia
[48] = tested on: 786-0 renal
[49] = tested on: MDA-MB-435
[50] = tested on: MDA-N
[51] = tested on: BT-549 breast
[52] = tested on: MCF7 breast
[53] = tested on: OVCAR-3 ovarian
[54] = tested on: U251 CNS
[55] = tested on: A498 renal
[56] = tested on: K-562 leukemia
[57] = tested on: RPMI-8226 leukemia
[58] = tested on: T-47D breast
[59] = tested on: MALME-3M melanoma

Measured: TGI

Cc1csc(NNC(N)=O)n1
not listed: [55] | [56] | [57] | [58] | [59]
> 100 µM: all other assays above

O=C1c2c(O)cc(O)cc2C(C2OC(CO)C(O)C(O)C2O)c2cc(CO)cc(O)c21 (configuration not stated)
54.9 µM: [40]
not listed: [12] | [16] | [19] | [22] | [24] | [34] | [37] | [42] | [45]
> 100 µM: all other assays above

CC(=O)OC1OC(c2ccoc2)C[C@@]12C1CCC3O[C@]3(C)[C@]1(C)[C@H](OC(C)=O)[C@H](OC(C)=O)[C@H]2C (some centres not stated)
not listed: [4] | [20] | [24] | [40] | [49] | [57] | [58]
> 37.5 µM: all other assays above

O=C1C2=Cc3ccccc3OC2(O)Oc2ccccc21 (configuration not stated)
not listed: [13] | [18] | [24] | [30] | [39] | [43] | [45] | [51]
> 100 µM: all other assays above
